Here are results for 18 compounds from US9388195B2, “Heterocyclic compound” (Takeda Pharmaceutical Company Limited, priority 2010, dated 2016).

The target in one experiment is T1, Cdc7/Dbf4 complex (Homo sapiens, UniProt O00311).
T1 construct: Full-length Cdc7 co-expressed with full-length Dbf4; purchased Carna Biosciences (Kobe)
Nature of the experiment: Measurement of Cdc7 kinase inhibitory activity (Transcreener ADP HTRF assay). The experiment is classed as biochemical. The protocol: Full-length Cdc7 co-expressed with full-length Dbf4 was purchased from Carna Biosciences (Kobe). The enzyme activity of Cdc7/Dbf4 complex was detected by homogeneous time-resolved fluorescence method Transcreener ADP assay (Cisbio Inc., MA, U.S.A.). […] Free ADP produced by ATP hydrolysis was detected by Eu^3+-Cryptate-labeled anti-ADP monoclonal antibody competitively with d2-labeled ADP, and the production amount thereof was measured. The obtained time-resolved fluorescence resonance energy transfer signal was measured by EnVision (Perkin Elmer Inc., MA, U.S.A.). The inhibitory rate (%) of the test compound to Cdc7 was calculated by the following formula. Inhibitory rate(%)=(1−(count of test compound-blank)[…](control-blank))×100
The count of the Cdc7/Dbf4 reaction mixture under compound-free conditions was taken as the control, and that under compound-free and Cdc7/Dbf4-free conditions was taken as the blank.

The subject of experiment [1] is human colorectal cancer cell Colo205. Nature of the experiment: Measurement of growth inhibitory activity on human colorectal cancer cell Colo205 (CellTiter-Glo). It counts as cell-based. The following applies: COLO 205, 72 h, read-out: inhibitory rate (%) at 1 μM. The protocol:
The growth inhibition of colorectal cancer cell Colo205 with the compound of the present invention can be measured as follows.
A cell suspension (100 μl) of human colorectal cancer cell Colo205 (purchased from ATCC) (3,000 cells/well) was plated in a 96 well plate, and cultured in a 5% carbon dioxide gas incubator at 37° C. for 1 day. Each 2 μM test compound solution was added by 100 μl and the cells were cultured for 3 days. CellTiter-Glo™ Luminescent Cell Viability Assay reagent (50 μl, Promega) was added to the 96 well plate, the luminescence level was measured by a luminometer and the residual ATP amount was taken as the cell amount. The luminescence level of a well free of cell plating was taken as a blank. The cell proliferation inhibitory rate (%) of the test compound was calculated by the following formula. Inhibitory rate(%)=(1−(luminescence level of test compound—blank)[…](luminescence level of control group—blank))×100

Experiment [2] has as its system phosphorylated MCM2 (Ser40/Ser41). Nature of the experiment: Measurement of MCM2 phosphorylation inhibitory activity in human colorectal cancer cell Colo205 (Western blot). The experiment is classed as cell-based. The following applies: read-out: inhibitory rate (%) at 1 μM. The protocol: The MCM2 phosphorylation suppressive action of the compound of the present invention in human colorectal cancer cell Colo205 can be measured as follows. A cell suspension (500 μl) of human colorectal cancer cell Colo205 (purchased from ATCC) (50,000 cells/well) was plated in a 24 well plate, and cultured in a 5% carbon dioxide gas incubator at 37° C. for 1 day. […] The plate was washed with PBS, the cells were lysed in Laemmli Sample Buffer (BioRad), and cell lysate was treated at 95° C. for 5 min.
For orientation: A western blot detects proteins with antibodies after separation by electrophoresis.

In experiment [3] the test system is human colorectal cancer cell Colo205. Nature of the experiment: Measurement of antitumor activity in human colorectal cancer cell Colo205 cancer bearing mouse. The experiment is classed as in vivo. The following applies: Colo205 tumor growth ratio, mice. How it is done:
Tumor volume=long diameter×short diameter×short diameter×(½) Mice having an engrafted tumor volume of about 200 mm^3 were selected, and 5 mice per group were used for the experiment. […] The tumor diameter was measured one day before the start of the administration and the next day of the completion of the administration and the tumor volume was calculated. The tumor growth ratio of the test compound administration group as compared to that of the control administration group was taken as T/C(%) and calculated by the following formula. T/C(%)=(tumor volume of test compound administration group after completion of administration−tumor volume of test compound administration group one day before start of administration)/(tumor volume of control administration group after completion of administration−tumor volume of control administration group one day before start of administration))×100

Experiment [4] deals with phosphorylated MCM2 (Ser40/Ser41). Nature of the experiment: animal or person. The following applies: Mus musculus, COLO 205, po, 4 h, read-out: inhibitory rate (%).
Method: Human colorectal cancer cell Colo205 was suspended in 50% Matrigel solution, and transplanted into 6- to 7-week-old female BALB/c mice (CLEA Japan, Inc.) at 5.0×10^6 cells by subcutaneous injection. The diameter of the tumor engrafted in 7 to 14 days from the transplantation was measured, and the tumor volume was calculated by the following formula. Tumor volume=long diameter×short diameter×short diameter×(½)
A suspension of the test compound in 0.5% methylcellulose solution (Wako Pure Chemical Industries, Ltd.) was orally administered at a dose shown in the Table to mice having a tumor volume of 150-600 mm^3. The tumor was removed under ether anesthesia at 4 hr after administration of the test compound, and homogenized in Cell Lysis Buffer (Cell Signaling). Using BCA Protein assay kit (Thermo Scientific), the protein in the tumor lysate was quantified, and the protein amount was adjusted. The above-mentioned protein solution was treated with Laemmli Sample Buffer (BioRad) at 95° C. for 5 min.
Then, SDS-PAGE was performed and the protein was transferred onto a PVDF membrane by using iBlot™ gel transfer system (Invitrogen). […] The membrane was washed in the same manner as above, chemical luminescence of antibody-labeled phosphorylated MCM2 protein using SuperSignal West FemtoMaximum Sensitivity Substrate (Pierce Biotechnology) was detected by lumino image analyzer LAS-1000 (Fuji Film).
Using the anti-MCM2 antibody (Santa Cruzu Biotechnology, sc-9839) and HRP-labeled goat IgG polyclonal antibody (Santa Cruzu Biotechnology, sc-2020) and in the same manner as above, the MCM2 protein was detected.
The phosphorylated MCM2 specific activity of each sample was calculated by the following formula. Phosphorylated MCM2 specific activity=(phosphorylated MCM2 luminescence level-background)+(MCM2 luminescence level-background)
The phosphorylated MCM2 protein inhibitory rate (%) of the test compound was calculated by the following formula and shown in Table. […]
[5] abbreviates: test compound 1 μM, Cdc7/Dbf4, 1.0 μm ATP, 10 μg/ml MCM2, read-out: inhibitory rate (%) at 1 μM.
[6] abbreviates: cell proliferation, Colo205, 1 μM, cultured for 3 days.
Setting [7] is: COLO 205, phosphorylated MCM2 protein, Colo205 cells, 1 μM, 8 hr.
[8] abbreviates: test compound 1 μM, Cdc7/Dbf4, 1.0 μm ATP, 10 μg/ml MCM2, hydrochloride.
The mark [9] stands for this setting: read-out: inhibitory rate (%) at 1 μM, test compound 1 μM, Cdc7/Dbf4, 1.0 μm ATP, 10 μg/ml MCM2.
Setting [10] is: test compound 1 μM, Cdc7/Dbf4, 1.0 μm ATP, 10 μg/ml MCM2, dihydrochloride.
Where [11] appears, read: 100 mg/kg orally twice a day for 14 days.

Structures can show the parent of a compound that is named as a salt. Where two headings read alike, the source gives them in different places.

T1 sequence (O00311 whole entry): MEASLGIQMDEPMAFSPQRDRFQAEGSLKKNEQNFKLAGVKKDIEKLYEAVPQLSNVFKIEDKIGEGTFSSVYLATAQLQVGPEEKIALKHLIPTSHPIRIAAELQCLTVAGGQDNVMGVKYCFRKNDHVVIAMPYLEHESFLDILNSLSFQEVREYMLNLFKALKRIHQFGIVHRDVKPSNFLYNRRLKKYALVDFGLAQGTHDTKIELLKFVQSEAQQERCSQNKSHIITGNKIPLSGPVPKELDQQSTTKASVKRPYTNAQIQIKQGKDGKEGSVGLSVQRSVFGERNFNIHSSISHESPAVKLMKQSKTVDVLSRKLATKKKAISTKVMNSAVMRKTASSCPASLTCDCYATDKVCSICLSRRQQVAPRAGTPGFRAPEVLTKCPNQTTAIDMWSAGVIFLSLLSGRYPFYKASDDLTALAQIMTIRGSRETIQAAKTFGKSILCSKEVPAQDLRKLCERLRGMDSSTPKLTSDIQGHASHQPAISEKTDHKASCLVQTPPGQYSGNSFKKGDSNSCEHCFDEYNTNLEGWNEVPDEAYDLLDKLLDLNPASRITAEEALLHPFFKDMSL
T1 sequence (Q9UBU7 whole entry partner): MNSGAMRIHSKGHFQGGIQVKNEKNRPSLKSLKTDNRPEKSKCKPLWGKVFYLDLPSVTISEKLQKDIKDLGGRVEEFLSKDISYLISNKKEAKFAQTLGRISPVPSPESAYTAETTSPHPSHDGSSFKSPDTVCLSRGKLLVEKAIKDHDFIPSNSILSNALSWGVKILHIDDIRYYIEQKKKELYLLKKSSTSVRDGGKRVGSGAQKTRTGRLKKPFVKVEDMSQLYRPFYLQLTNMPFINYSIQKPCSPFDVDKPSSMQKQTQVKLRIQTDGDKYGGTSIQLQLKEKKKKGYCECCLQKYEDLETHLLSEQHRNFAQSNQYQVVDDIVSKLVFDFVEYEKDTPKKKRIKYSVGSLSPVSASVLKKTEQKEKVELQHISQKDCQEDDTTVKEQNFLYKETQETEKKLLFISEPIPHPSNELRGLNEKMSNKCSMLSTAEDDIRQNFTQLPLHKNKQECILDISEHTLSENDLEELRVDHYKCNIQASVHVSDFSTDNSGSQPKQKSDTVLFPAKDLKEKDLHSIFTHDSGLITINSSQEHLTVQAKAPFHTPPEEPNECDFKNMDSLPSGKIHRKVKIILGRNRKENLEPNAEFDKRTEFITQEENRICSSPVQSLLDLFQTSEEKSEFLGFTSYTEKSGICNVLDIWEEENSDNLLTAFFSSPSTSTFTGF

For the compound `Cc1[nH]ncc1-c1cc2nc([C@H]3NC4CC3[C@H](F)C4)[nH]c(=O)c2s1` (single isomer, unassigned) [Example 160, 2-[(1R,3S,4R,5R) or (1S,3S,4S,5R)-5-fluoro-2-azabicyclo[2.2.1]hept-3-yl]-6-(5-methyl-1H-pyrazol-4-yl)thieno[3,2-d]pyrimidin-4 (3H)-one dihydrochloride], the inhibition at 1 µM at Cdc7/Dbf4 complex (setting [5]) was found to be 104%; in experiment [1] (setting [6]), 73.3%; in experiment [2] (setting [7]), 95%.
Turning to `Cc1[nH]ncc1-c1cc2nc([C@H]3NC4CC3[C@H](F)C4)[nH]c(=O)c2s1` (single isomer, unassigned) [Example 175, 2-[(1R,3S,4R,5R) or (1S,3S,4S,5R)-5-fluoro-2-azabicyclo[2.2.1]hept-3-yl]-6-(5-methyl-1H-pyrazol-4-yl)thieno[3,2-d]pyrimidin-4 (3H)-one hydrochloride], the “inhibitory rate (%) at 1 μM” value on Cdc7/Dbf4 complex (setting [8]) is 105%. Further, the “T/C (%)” value in experiment [3] (50 mg/kg orally twice a day for 14 days) amounted to 40.3%.
`Cc1[nH]ncc1-c1cc2nc(CN3CCCC3)[nH]c(=O)c2s1` [Example 2, 6-(5-methyl-1H-pyrazol-4-yl)-2-(pyrrolidin-1-ylmethyl)thieno[3,2-d]pyrimidin-4 (3H)-one]: the inhibition at 1 µM on Cdc7/Dbf4 complex (setting [9]) was 93.8%; in experiment [1], 44.1%; in experiment [2] (COLO 205, 8 h), 90.4%.
As to `Cc1[nH]ncc1-c1cc2nc([C@@H]3CCCN3)[nH]c(=O)c2s1` [Example 37, 6-(5-methyl-1H-pyrazol-4-yl)-2-[(2S)-pyrrolidin-2-yl]thieno[3,2-d]pyrimidin-4 (3H)-one dihydrochloride], the “inhibitory rate (%) at 1 μM” value against Cdc7/Dbf4 complex (setting [10]) came out at 102.6%. The inhibition at 1 µM in experiment [1] worked out at 75.3%; in experiment [2] (COLO 205, 8 h), 98.4%.
For the compound `Cc1[nH]ncc1-c1cc2nc([C@@H]3CCCCN3)[nH]c(=O)c2s1` [Example 83, 6-(5-methyl-1H-pyrazol-4-yl)-2-[(2S)-piperidin-2-yl]thieno[3,2-d]pyrimidin-4 (3H)-one dihydrochloride], the “inhibitory rate (%) at 1 μM” value at Cdc7/Dbf4 complex (setting [10]) came out at 125.5%. In addition, the inhibition at 1 µM in experiment [1] worked out at 76.6%; in experiment [2] (COLO 205, 8 h), 97.6%. Further, the “T/C (%)” value in experiment [3] (setting [11]) came to 5.7%. Further, in experiment [4], the inhibition at 100 mg/kg came out at 71.8%.
In the case of `Cc1[nH]ncc1-c1cc2nc([C@H]3N[C@@H]4CC[C@H]3C4)[nH]c(=O)c2s1` [Example 91, 2-[(1R,3S,4S)-2-azabicyclo[2.2.1]heptan-3-yl]-6-(5-methyl-1H-pyrazol-4-yl)thieno[3,2-d]pyrimidin-4 (3H)-one], the inhibition at 1 µM amounted to 106% at Cdc7/Dbf4 complex (setting [5]), 71.7% in experiment [1] (setting [6]) and 98.4% in experiment [2] (setting [7]).
For the compound `Cc1[nH]ncc1-c1cc2nc(C34CCC(CC3)N4)[nH]c(=O)c2s1` [Example 116, 2-(7-azabicyclo[2.2.1]hept-1-yl)-6-(5-methyl-1H-pyrazol-4-yl)thieno[3,2-d]pyrimidin-4 (3H)-one monohydrochloride], the inhibition at 1 µM on Cdc7/Dbf4 complex (setting [9]) came to 102%; in experiment [1], 60.5%; in experiment [2] (COLO 205, 8 h), 98.7%.
For `O=c1[nH]c(CN2CCCC2)nc2cc(-c3cn[nH]c3C(F)(F)F)sc12` [Example 143, 2-(pyrrolidin-1-ylmethyl)-6-[5-(trifluoromethyl)-1H-pyrazol-4-yl]thieno[3,2-d]pyrimidin-4 (3H)-one], the inhibition at 1 µM at Cdc7/Dbf4 complex (setting [5]) was found to be 122%.
Take `Cc1[nH]ncc1-c1cc2nc([C@@H]3CC=CCN3)[nH]c(=O)c2s1` [Example 145, 6-(5-methyl-1H-pyrazol-4-yl)-2-[(2S)-1,2,3,6-tetrahydropyridin-2-yl]thieno[3,2-d]pyrimidin-4 (3H)-one dihydrochloride]: the inhibition at 1 µM at Cdc7/Dbf4 complex (setting [9]) was 126%; in experiment [1], 78.5%; in experiment [2] (COLO 205, 8 h) it was 95.8%. The “T/C (%)” value in experiment [3] (setting [11]) is −4.7%. Besides, in experiment [4], the inhibition at 100 mg/kg worked out at 68.9%.
Turning to `Cc1[nH]ncc1-c1cc2nc([C@H]3CC=CCN3)[nH]c(=O)c2s1` [Example 146, 6-(5-methyl-1H-pyrazol-4-yl)-2-[(2R)-1,2,3,6-tetrahydropyridin-2-yl]thieno[3,2-d]pyrimidin-4 (3H)-one dihydrochloride], at Cdc7/Dbf4 complex (setting [9]), the inhibition at 1 µM is 108%.
On to `Cc1[nH]ncc1-c1cc2nc(C34CC(CN3)C4)[nH]c(=O)c2s1` [Example 148, 2-(2-azabicyclo[2.1.1]hex-1-yl)-6-(5-methyl-1H-pyrazol-4-yl)thieno[3,2-d]pyrimidin-4 (3H)-one hydrochloride], for which the inhibition at 1 µM at Cdc7/Dbf4 complex (read-out: inhibitory rate (%) at 1 μM) came to 102%.
For the compound `Cc1[nH]ncc1-c1cc2nc([C@]34C[C@H]3CCN4)[nH]c(=O)c2s1` [Example 157, 2-[(1S,5R)-2-azabicyclo[3.1.0]hex-1-yl]-6-(5-methyl-1H-pyrazol-4-yl)thieno[3,2-d]pyrimidin-4 (3H)-one dihydrochloride], the inhibition at 1 µM on Cdc7/Dbf4 complex (setting [5]) was found to be 92%.
`CCc1[nH]ncc1-c1cc2nc([C@@H]3CCCCN3)[nH]c(=O)c2s1` [Example 162, 6-(5-ethyl-1H-pyrazol-4-yl)-2-[(2S)-piperidin-2-yl]thieno[3,2-d]pyrimidin-4 (3H)-one dihydrochloride]: on Cdc7/Dbf4 complex (setting [5]), the inhibition at 1 µM stood at 104%.
Consider `Cc1[nH]ncc1-c1cc2nc([C@H]3CC4CCN3CC4)[nH]c(=O)c2s1` [Example 164, 2-[(2R)-1-azabicyclo[2.2.2]oct-2-yl]-6-(5-methyl-1H-pyrazol-4-yl)thieno[3,2-d]pyrimidin-4 (3H)-one trifluoroacetate], for which the inhibition at 1 µM on Cdc7/Dbf4 complex (setting [5]) worked out at 101%.
As to `O=c1[nH]c(C23CC(CN2)C3)nc2cc(-c3cn[nH]c3C(F)(F)F)sc12` [Example 165, 2-(2-azabicyclo[2.1.1]hex-1-yl)-6-[5-(trifluoromethyl)-1H-pyrazol-4-yl]thieno[3,2-d]pyrimidin-4 (3H)-one dihydrochloride], the inhibition at 1 µM at Cdc7/Dbf4 complex (setting [5]) is 105%.
On to `Cc1[nH]ncc1-c1cc2nc([C@@H]3CC4CCN3CC4)[nH]c(=O)c2s1` [Example 170, 2-[(2S)-1-azabicyclo[2.2.2]oct-2-yl]-6-(5-methyl-1H-pyrazol-4-yl)thieno[3,2-d]pyrimidin-4 (3H)-one trifluoroacetate], for which the inhibition at 1 µM at Cdc7/Dbf4 complex (setting [5]) worked out at 95%; in experiment [1], 69.7%; in experiment [2] (COLO 205, 8 h) it was 97.3%.
For the compound `Cc1[nH]ncc1-c1cc2nc([C@@H]3CCCCN3)[nH]c(=O)c2s1` [Example 172, 6-(5-methyl-1H-pyrazol-4-yl)-2-[(2S)-piperidin-2-yl]thieno[3,2-d]pyrimidin-4 (3H)-one hydrochloride], the “inhibitory rate (%) at 1 μM” value against Cdc7/Dbf4 complex (setting [8]) was 102%.
As for `Cc1[nH]ncc1-c1cc2nc([C@@H]3CCCCN3)[nH]c(=O)c2s1` [Example 174, 6-(5-methyl-1H-pyrazol-4-yl)-2-[(2S)-piperidin-2-yl]thieno[3,2-d]pyrimidin-4 (3H)-one], on Cdc7/Dbf4 complex (test compound 1 μM, Cdc7/Dbf4, 1.0 μm ATP, 10 μg/ml MCM2), the “inhibitory rate (%) at 1 μM” value was 104%.
